Measured values published in ChEMBL document CHEMBL1781960, “Discovery of non-glycoside sodium-dependent glucose co-transporter 2 (SGLT2) inhibitors by ligand-based virtual screening” (J Med Chem, 2010).
pEC50: −log10 of the molar value.

How the values were obtained:
[1] = target: T1, Sodium/glucose cotransporter 2 (Homo sapiens, UniProt P31639); assay: (§1) Inhibition of human SGLT2 expressed in CHO-K1 cells assessed as reduction in [14C]-alpha-methylglucopyranoside uptake after 2 hrs by liquid scintillation counting; type: cell-based
T1 sequence (P31639 whole entry): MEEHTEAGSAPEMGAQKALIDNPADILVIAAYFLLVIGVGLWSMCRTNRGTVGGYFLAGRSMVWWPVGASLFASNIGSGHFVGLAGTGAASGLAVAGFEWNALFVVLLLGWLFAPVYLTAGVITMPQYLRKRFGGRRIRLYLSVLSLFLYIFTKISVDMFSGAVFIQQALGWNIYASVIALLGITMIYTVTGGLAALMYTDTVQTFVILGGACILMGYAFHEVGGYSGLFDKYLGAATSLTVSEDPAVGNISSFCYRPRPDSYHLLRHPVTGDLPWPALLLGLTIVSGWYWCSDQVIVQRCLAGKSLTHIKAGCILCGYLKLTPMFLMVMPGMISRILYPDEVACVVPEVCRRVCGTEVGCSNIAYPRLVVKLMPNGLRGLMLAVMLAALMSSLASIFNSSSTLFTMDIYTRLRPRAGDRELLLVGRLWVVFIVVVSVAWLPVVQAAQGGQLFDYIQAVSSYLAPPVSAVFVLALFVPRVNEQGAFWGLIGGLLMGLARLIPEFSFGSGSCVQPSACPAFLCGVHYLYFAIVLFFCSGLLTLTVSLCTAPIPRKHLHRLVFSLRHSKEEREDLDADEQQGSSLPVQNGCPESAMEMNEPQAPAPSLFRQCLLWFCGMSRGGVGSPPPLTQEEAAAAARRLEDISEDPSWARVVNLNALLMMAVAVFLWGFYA

[2] = target: T2, Sodium/glucose cotransporter 2 (Homo sapiens) (UniProt P31639); assay: as §1; type: cell-based
T2 sequence (whole entry): T1 sequence (P31639 whole entry)

SMILES | pEC50 [1] | inhibition [2]
N=c1n(CCO)c2ccccc2n1Cc1ccc(Cl)cc1 | 4.51 | –
CC(C)(C)C(O)Cn1c(=N)n(CCN2CCCCC2)c2ccccc21 (stereo not drawn) | < 4.30 | –
CC(C)(C)C(O)Cn1c(=N)n(Cc2ccccc2)c2ccccc21 (stereo not drawn) | 5.41 | Dose-dependent effect
N=c1n(Cc2ccccc2)c2ccccc2n1CC(O)c1ccco1 (stereo not drawn) | 4.46 | –
N=c1n(Cc2ccc(Cl)cc2)c2ccccc2n1CC(O)c1ccco1 (stereo not drawn) | 4.96 | –
OC[C@H]1O[C@@H](n2cc(Cc3ccc(C4CC4)cc3)c3c(F)cc(F)cc32)[C@H](O)[C@@H](O)[C@@H]1O | 8.55 | –
COc1cc(C(Nc2cccc(C)n2)c2ccc3ccc(C)nc3c2O)cc(OC)c1OC (stereo not drawn) | 5.23 | Dose-dependent effect
N=c1n(Cc2ccccc2)c2ccccc2n1CC(O)c1cccs1 (stereo not drawn) | 4.72 | –
OC[C@H]1O[C@@H](n2cc(Cc3ccc(C4CC4)cc3)c3c(Cl)cccc32)[C@H](O)[C@@H](O)[C@@H]1O | 8.64 | –
N=c1n(Cc2ccccc2)c2ccccc2n1CC(O)COc1ccccc1 (stereo not drawn) | 5.34 | –
OC[C@H]1O[C@@H](Oc2cccc3[nH]cc(CCc4ccc5c(c4)CCO5)c23)[C@H](O)[C@@H](O)[C@@H]1O | 7.62 | –
C=CCn1c(=N)n(CC(O)C(C)(C)C)c2ccccc21 (stereo not drawn) | 4.39 | –
CCOc1ccc(Cc2cc([C@@H]3O[C@H](CO)[C@@H](O)[C@H](O)[C@H]3O)ccc2C)cc1 | 8.96 | –
Cn1cc(CCc2ccc3c(c2)CCO3)c2c(O[C@@H]3O[C@H](CO)[C@@H](O)[C@H](O)[C@H]3O)cccc21 | 7.17 | –
N=c1n(CCO)c2ccccc2n1Cc1ccccc1 | < 4.30 | –
COc1ccc(NC(=S)NNC(=O)c2cc(-c3ccccc3)sc2N)cc1 | 5.05 | Dose-dependent effect
OC[C@H]1O[C@@H](n2cc(Cc3ccc(C4CC4)cc3)c3c(F)cccc32)[C@H](O)[C@@H](O)[C@@H]1O | 8.72 | –
CCc1ccc(Cc2cc([C@@H]3O[C@H](CO)[C@@H](O)[C@H](O)[C@H]3O)ccc2C)cc1 | 7.92 | –
N=c1n(CC(=O)O)c2ccccc2n1Cc1ccc(Cl)cc1 | < 4.30 | –
COc1ccc(C(O)Cn2c(=N)n(Cc3ccccc3)c3ccccc32)cc1 (stereo not drawn) | 4.79 | –
